Laboratory results reported in patent US6020176A, “Kaurene synthase” (The Institute of Physical and Chemical Research, priority 1995, dated 2000).

Test system: ent-kaurene synthase B (KSB)
Test: Properties of KSB with the phenyl-purified enzyme preparation (pH, Km, cations)
Type: biochemical, Cucurbita maxima L.
Details: for effect of divalent cation on KSB activity: 0.1-50 mM as chlorides, instead of 5 mM Mg2+; for effect of divalent cation on KSB activity / optimal concentration of cation for KSB activity: FIG. 4; for optimal concentration of cation for KSB activity: cation as chloride instead of 5 mM Mg2+
Method: The mixture was incubated at 30° C. for 30 min, and the enzyme reaction was terminated by the addition of acetone (200 μL) and water (100 μL). The mixture was extracted with n-hexane (400 μL), and 300 μL alibuots of the extract were concentrated in vacuo and applied to a silica gel plate. After developing with n-hexane, the radioactivity of the silica gel of the ent-kaurene region (Rf 0.6-1.0) was determined. One unit of kaurene synthase activity was defined as the production of 1 pmol of ent-kaurene per minute.
The amount of [1-^3 H]CPP was 2.2 kBq and the incubation period was 15 min. The other conditions were the same as those for the enzyme assay. To determine the optimal pH, KPi buffer (50 mM) adjusted to a particular pH (pH 4.5 to 9.0) was used. […] The production of ent-kaurene was calculated and the Km value was determined from a Lineweaver-Burk plot.

Compound | effect of divalent cation on KSB activity | effect on KSB activity in combination with 5 mM Mg2+ (added together with 5 mM Mg2+) | optimal concentration of cation for KSB activity | also measured
[Ba+2].[Cl-].[Cl-] [Ba^2+] | showed no effects | inhibited KSB activity promoted by Mg^2+ |  | 
[Cl][Fe][Cl] [Fe^2+] | weakly promoted KSB activity |  |  | 
O=C(O)CN(CCN(CC(=O)O)CC(=O)O)CC(=O)O [EDTA] |  |  |  | effect of EDTA on KSB activity (EDTA 1-100 mM): did not change KSB activity
C=C1CC[C@@H]2C(C)(C)CCC[C@@]2(C)[C@@H]1CC/C(C)=C/COP(=O)(O)OP(=O)(O)O [[15-^3 H]CPP, copalyl pyrophosphate] |  |  |  | Km (phenyl-purified enzyme preparation, CPP 7 to 480 nM, Lineweaver-Burk plot): 0.35 µM
[Cl-].[Cl-].[Co+2] [Co^2+] | promoted KSB activity |  | around 10 mM | 
[Cl][Cu][Cl] [Cu^2+] | showed no effects | inhibited KSB activity promoted by Mg^2+ |  | concentration completely inhibiting the conversion promoted by 5 mM Mg2+ (added together with 5 mM Mg2+): above 0.5 mM
[Cl][Mn][Cl] [Mn^2+] | promoted KSB activity |  | around 10 mM | 
[Cl-].[Cl-].[Mg+2] [Mg^2+] | promoted KSB activity |  | around 10 mM | 
[Ca+2].[Cl-].[Cl-] [Ca^2+] | showed no effects | inhibited KSB activity promoted by Mg^2+ |  | 
[Cl][Ni][Cl] [Ni^2+] | weakly promoted KSB activity |  |  | 
